Experimental data as given in patent publication US20230279025A1, “KRAS G12D INHIBITORS” (Mirati Therapeutics, Inc., priority 2020, published 2023).

Target: KRas G12D (Homo sapiens (Human), UniProt P01116, G12D)
Assay: KRas G12D Binding Assay (TR-FRET displacement of Cy5 labelled tracer)
Conditions: GDP-loaded KRAS G12D (amino acids 1:169), 60 minute incubation at 22° C.
Procedure: After a 60 minute incubation at 22° C., the reaction was measured using a PerkinElmer EnVision multimode plate reader via TR-FRET dual wavelength detection, and the percent of control (POC) calculated using a ratiometric emission factor. […] The POC values were fit to a 4-parameter logistic curve and the IC50 value was determined as the concentration where the curve crosses 50 POC.
ND stands for “not determined.”

KRas G12D, sequence (P01116 other isoform, or with tags, fused parts or gaps G12D): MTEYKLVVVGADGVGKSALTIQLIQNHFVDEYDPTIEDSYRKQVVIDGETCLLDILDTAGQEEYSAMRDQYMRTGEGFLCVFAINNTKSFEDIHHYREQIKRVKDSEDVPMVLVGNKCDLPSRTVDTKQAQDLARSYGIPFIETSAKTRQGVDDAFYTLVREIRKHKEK

| Structure (SMILES) | IC50 |
| --- | --- |
| C[C@@H]1C[C@@H]1c1ccccc1-c1ncc2c(N3C[C@H]4CC[C@@H](C3)N4)nc(OCC34CCCN3CCC4)nc2c1F [Example 286, 4-((1R,5S)-3,8-diazabicyclo[3.2.1]octan-3-yl)-8-fluoro-2-((hexahydro-1H-pyrrolizin-7a-yl)methoxy)-7-(2-((S,2R)-2-methylcyclopropyl)phenyl)pyrido[4,3-d]pyrimidine] | 17.2 nM |
| C[C@H]1C[C@H]1c1ccccc1-c1ncc2c(N3C[C@H]4CC[C@@H](C3)N4)nc(OCC34CCCN3CCC4)nc2c1F [Example 287, 4-((1R,5S)-3,8-diazabicyclo[3.2.1]octan-3-yl)-8-fluoro-2-((hexahydro-1H-pyrrolizin-7a-yl)methoxy)-7-(2-((1R,2S)-2-methylcyclopropyl)phenyl)pyrido[4,3-d]pyrimidine] | 90.7 nM |
| C[C@@H]1C[C@H]1c1ccccc1-c1ncc2c(N3C[C@H]4CC[C@@H](C3)N4)nc(OCC34CCCN3CCC4)nc2c1F [Example 288, 4-((1R,5S)-3,8-diazabicyclo[3.2.1]octan-3-yl)-8-fluoro-2-((hexahydro-1H-pyrrolizin-7a-yl)methoxy)-7-(2-((1R,2R)-2-methylcyclopropyl)phenyl)pyrido[4,3-d]pyrimidine] | 590 nM |
| C[C@H]1C[C@@H]1c1ccccc1-c1ncc2c(N3C[C@H]4CC[C@@H](C3)N4)nc(OCC34CCCN3CCC4)nc2c1F [Example 289, 4-((1R,5S)-3,8-diazabicyclo[3.2.1]octan-3-yl)-8-fluoro-2-((hexahydro-1H-pyrrolizin-7a-yl)methoxy)-7-(2-((1S,2S)-2-methylcyclopropyl)phenyl)pyrido[4,3-d]pyrimidine] | 218 nM |
| CC(C)c1c(F)cc(O)cc1-c1ncc2c(N3C[C@H]4CC[C@@H](C3)N4)nc(OC[C@@]34CCCN3C[C@H](F)C4)nc2c1F [Example 290, 3-(4-((1R,5S)-3,8-diazabicyclo[3.2.1]octan-3-yl)-8-fluoro-2-(((2R,7aS)-2-fluorotetrahydro-1H-pyrrolizin-7a(5H)-yl)methoxy)pyrido[4,3-d]pyrimidin-7-yl)-5-fluoro-4-isopropylphenol] | 2.1 nM |
| CC(C)c1c(Cl)cc(O)cc1-c1ncc2c(N3C[C@H]4CC[C@@H](C3)N4)nc(OC[C@@]34CCCN3C[C@H](F)C4)nc2c1F [Example 291, 3-(4-((1R,5S)-3,8-diazabicyclo[3.2.1]octan-3-yl)-8-fluoro-2-(((2R,7aS)-2-fluorohexahydro-1H-pyrrolizin-7a-yl)methoxy)pyrido[4,3-d]pyrimidin-7-yl)-5-chloro-4-isopropylphenol] | 1.6 nM |
| Fc1cccc(-c2ncc3c(N4C[C@H]5CC[C@@H](C4)N5)nc(OCC45CCCN4CCC5)nc3c2F)c1C(F)(F)F [Example 292, 4-((1R,5S)-3,8-diazabicyclo[3.2.1]octan-3-yl)-8-fluoro-7-(3-fluoro-2-(trifluoromethyl)phenyl)-2-((tetrahydro-1H-pyrrolizin-7a(5H)-yl)methoxy)pyrido[4,3-d]pyrimidine] | 13.1 nM |
| Fc1c(-c2ccccc2C(F)F)ncc2c(N3C[C@H]4CC[C@@H](C3)N4)nc(OCC34CCCN3CCC4)nc12 [Example 293, 4-((1R,5S)-3,8-diazabicyclo[3.2.1]octan-3-yl)-7-(2-(difluoromethyl)phenyl)-8-fluoro-2-((hexahydro-1H-pyrrolizin-7a-yl)methoxy)pyrido[4,3-d]pyrimidine] | 692 nM |
| Cc1c(F)cccc1-c1ncc2c(N3C[C@H]4CC[C@@H](C3)N4)nc(OCC34CCCN3CCC4)nc2c1F [Example 294, 4-((1R,5S)-3,8-diazabicyclo[3.2.1]octan-3-yl)-8-fluoro-7-(3-fluoro-2-methylphenyl)-2-((hexahydro-1H-pyrrolizin-7a-yl)methoxy)pyrido[4,3-d]pyrimidine] | 620 nM |
| CCc1ccccc1-c1ncc2c(N3C[C@H]4CC[C@@H](C3)N4)nc(OCC34CCCN3CCC4)nc2c1F [Example 295, 4-((1R,5S)-3,8-diazabicyclo[3.2.1]octan-3-yl)-7-(2-ethylphenyl)-8-fluoro-2-((hexahydro-1H-pyrrolizin-7a-yl)methoxy)pyrido[4,3-d]pyrimidine] | 192 nM |
